The source of these data is patent publication US12215082B1 (priority 2023, dated 2025).

This test deals with multidrug-resistant (MDR) strains of Mycobacterium tuberculosis. Nature of the test: microbe, parasite or virus in culture. In kind it is cell-based. Particulars: 192 h, read-out: MIC MDR-TB.
As for `N#Cc1ccc(C(=O)C[n+]2ccc(/C=N/O)cc2)cc1.[Br-]` [Compound 3d, (E)-1-(2-(4-Cyanophenyl)-2-oxoethyl)-4-((hydroxyimino)methyl)pyridin-1-ium bromide], the MIC was found to be 128 µg/mL.
Turning to `O=C(C[n+]1ccc(/C=N/O)cc1)c1ccc(F)cc1.[Br-]` [Compound 3c, (E)-1-(2-(4-Fluorophenyl)-2-oxoethyl)-4-((hydroxyimino)methyl)pyridin-1-ium bromide], the MIC turned out to be 128 µg/mL.
The value for `O=C(C[n+]1ccc(/C=N/O)cc1)c1ccc(Br)cc1.[Br-]` [Compound 3b, (E)-1-(2-(4-Bromophenyl)-2-oxoethyl)-4-((hydroxyimino)methyl)pyridin-1-ium bromide] was 64 µg/mL; that for `O=C(C[n+]1ccc(/C=N/O)cc1)c1ccccc1.[Br-]` [Compound 3a, (E)-4-((Hydroxyimino)methyl)-1-(2-oxo-2-phenylethyl)pyridin-1-ium bromide] was 64 µg/mL.
In the case of `O=C(C[n+]1ccc(/C=N/O)cc1)c1ccccc1[N+](=O)[O-].[Br-]` [Compound 3e, (E)-4-((Hydroxyimino)methyl)-1-(2-(2-nitrophenyl)-2-oxoethyl)pyridin-1-ium bromide] it was 64 µg/mL.
